Experimental data published in PMC8778670, “Identification of an Orally Bioavailable, Brain-Penetrant Compound with Selectivity for the Cannabinoid Type 2 Receptor” (Molecules, 2022).

Columns and labels:
human CB1 receptors = biological target: T1, human CB1 receptors (Homo sapiens, UniProt P21554); test: Cannabinoid receptor [3H]CP-55,940 displacement binding assay, CB1; settings: 1 h; 10 µM compound; CHO cell membranes, 2.5 nM radioligand; read-out: Displacement of [3H]CP-55,940 from CB1
T1 construct: expressed in transfected cells; host or cells: CHO cells
T1 sequence (P21554 whole entry): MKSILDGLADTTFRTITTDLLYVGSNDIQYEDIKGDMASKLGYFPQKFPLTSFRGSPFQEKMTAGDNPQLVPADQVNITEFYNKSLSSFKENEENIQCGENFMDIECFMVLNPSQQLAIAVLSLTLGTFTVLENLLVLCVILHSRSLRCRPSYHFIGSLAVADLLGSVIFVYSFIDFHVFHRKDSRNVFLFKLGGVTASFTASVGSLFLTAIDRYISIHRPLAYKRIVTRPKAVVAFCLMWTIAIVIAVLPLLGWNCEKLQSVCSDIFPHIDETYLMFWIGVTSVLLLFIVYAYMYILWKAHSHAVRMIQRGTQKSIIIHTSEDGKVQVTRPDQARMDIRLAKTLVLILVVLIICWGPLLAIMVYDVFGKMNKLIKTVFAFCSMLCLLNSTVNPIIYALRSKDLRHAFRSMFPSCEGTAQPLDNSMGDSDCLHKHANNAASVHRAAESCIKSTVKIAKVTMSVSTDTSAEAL
Experimental: (§1) The affinities of the compounds for CB1 and CB2 receptors were examined using displacement assays, as previously described. Briefly, cell membranes from CHO cells expressing human CB1 or human CB2 receptors were isolated using differential centrifugation. Test compounds reconstituted in DMSO and were incubated with the isolated membrane in binding buffer (50 mM Tris-HCl, 1 mM EDTA, 3 mM MgCl2, 5 mg/mL BSA, pH 7.4) along with 2.5 nM [^3H]CP-55,940. Total binding was assessed in the presence of equal concentration of DMSO, while non-specific binding was determined in the presence of 10 μM CP-55,940, and background binding was determined in wells lacking membrane. Following incubation at 30 °C for 60 min, the binding reactions were terminated by vacuum filtration through Whatman GF/C filters. The filters were then washed twice with ice-cold buffer (50 mM Tris-HCl, 1 mg/mL BSA). Liquid scintillation cocktail was added to each well and the total tritiated counts per minute were analyzed using a TopCount scintillation counter. Background counts were subtracted from all wells and the percent displacement from total binding was calculated.
(§2) The compounds were initially screened at 10 μM concentrations. If they produced at least ±30% displacement of the radioligand, then full competition curves were constructed. Ki values were calculated using GraphPad Prism (San Diego, CA, USA) and Kd values determined using a 1 site fit. All assays were run in technical and biological replicates so that the n = 5–6.

human CB2 receptors = biological target: T2, human CB2 receptors (Homo sapiens, UniProt P34972); test: Cannabinoid receptor [3H]CP-55,940 displacement binding assay, CB2; settings: for inhibition at 10 µM: 1 h, 10 µM compound, CHO cell membranes, 2.5 nM radioligand, read-out: Displacement of [3H]CP-55,940 from CB2; for displacement of [3H]CP-55,940 in the competitive radioligand screen: 10 µM, receptor (CB1 or CB2) not given
T2 construct: expressed in transfected cells; host or cells: CHO cells
T2 sequence (P34972 whole entry): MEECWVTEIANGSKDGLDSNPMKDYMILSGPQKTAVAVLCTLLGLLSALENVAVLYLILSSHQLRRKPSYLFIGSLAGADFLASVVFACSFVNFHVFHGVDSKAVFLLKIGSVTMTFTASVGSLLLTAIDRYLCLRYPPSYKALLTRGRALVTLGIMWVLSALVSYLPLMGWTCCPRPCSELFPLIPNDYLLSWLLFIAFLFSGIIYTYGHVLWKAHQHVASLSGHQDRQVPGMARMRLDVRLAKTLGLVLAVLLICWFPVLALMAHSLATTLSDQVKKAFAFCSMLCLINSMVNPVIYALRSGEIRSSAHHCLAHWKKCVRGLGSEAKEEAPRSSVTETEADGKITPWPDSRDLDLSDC
Experimental: as §1, §2

inhibition at 10 µM (human CB1 receptors)	inhibition at 10 µM (human CB2 receptors)	displacement of [3H]CP-55,940 in the competitive radioligand screen (human CB2 receptors)	Ki (human CB2 receptors; CB2, full competition curves vs [3H]CP-55,940)	SMILES
-3.09%	-12.5%			O=C1c2ccccc2N/C(=N/N=C/c2ccc[nH]2)[C@@H]2CCCN12 [Compound 4a]
-14%	-14.5%			Cn1ccnc1/C=N/N=C1/Nc2ccccc2C(=O)N2CCC[C@@H]12 [Compound 4b]
0.25%	3.06%			O=C1c2ccccc2N/C(=N/N=C/c2cncs2)[C@@H]2CCCN12 [Compound 4c, (S,E)-11-[(Thiazol-5-ylmethylene)hydrazono]-pyrrolo[2,1-c][1,4] Benzodiazepine]
-28%	-33.6%			Cc1ncc(/C=N/N=C2/Nc3ccccc3C(=O)N3CCC[C@@H]23)s1 [Compound 4d]
21.9%	19.9%			Cc1ncsc1/C=N/N=C1/Nc2ccccc2C(=O)N2CCC[C@@H]12 [Compound 4e]
1.75%	3.72%			Nc1ncc(/C=N/N=C2/Nc3ccccc3C(=O)N3CCC[C@@H]23)s1 [Compound 4f]
24.2%	29.3%			O=C1c2ccccc2N/C(=N/N=C/c2sc(Cl)nc2Cl)[C@@H]2CCCN12 [Compound 4g]
36.9%	61%	more than 60%		O=C1c2ccccc2N/C(=N/N=C/c2cc3ccccc3s2)[C@@H]2CCCN12 [Compound 4h, (S,E)-11-[2-(Benzo[b]thiophenylmethylene)hydrazono]-pyrrolo[2,1-c][1,4] Benzodiazepine]
49.8%	36.4%			O=C1c2cc(Br)ccc2N/C(=N/N=C/c2cc3ccccc3s2)[C@@H]2CCCN12 [Compound 4i, (S,E)-11-[(Benzo[b]thiophen-2-ylmethylene)hydrazono]-7-bromo-pyrrolo[2,1-c][1,4] Benzodiazepine]
66.8%	65.2%			O=C1c2cc(Br)ccc2N/C(=N/N=C/c2csc3ccccc23)[C@@H]2CCCN12 [Compound 4j]
77.2%	51.7%			Cc1c(/C=N/N=C2/Nc3ccccc3C(=O)N3CCC[C@@H]23)sc2ccccc12 [Compound 4l]
5.22%	50%			O=C1c2ccccc2N/C(=N/N=C/c2sc3ccccc3c2Cl)[C@@H]2CCCN12 [Compound 4m]
44.1%	43.3%			O=C1c2ccccc2N/C(=N/N=C/c2nc3ccccc3s2)[C@@H]2CCCN12 [Compound 4n, (S,E)-11-[(Benzo[d]thiazol-2-ylmethylene)hydrazono]-pyrrolo[2,1-c][1,4] Benzodiazepine]
5.09%	1.01%			Cn1cc(/C=N/N=C2/Nc3ccccc3C(=O)N3CCC[C@@H]23)c2ccccc21 [Compound 4o]
55.3%	95.6%	more than 60%	137 nM	O=C1c2ccccc2N/C(=N/N=C/C23CC4CC(CC(C4)C2)C3)[C@@H]2CCCN12 [Compound 4q]
